Results taken from ChEMBL document CHEMBL1201862, “PubChem BioAssay data set” (2004).
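Grown in 96-well plates, cells were treated for 48 hours with each compound at five concentrations. Insufficient inhibition: endpoint recorded as highest concentration tested. GI50 is the concentration that inhibits growth by half.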 Activity calls are given as the source filed them. Rule as the data show it: active = GI50 up to about 1.1 µM and inactive = higher.

How the values were obtained:
Assay in all cases: NCI tumour cell line growth inhibition, 48 h
786-0 = test system: 786-0
A498 = test system: A498
A549 = test system: A549
ACHN = test system: ACHN
CAKI-1 = test system: CAKI-1
CCRF-CEM = test system: CCRF-CEM
DU-145 = test system: DU-145
EKVX = test system: EKVX
HCC 2998 = test system: HCC 2998
HCT-116 = test system: HCT-116
HCT-15 = test system: HCT-15
HL-60 = test system: HL-60
HOP-62 = test system: HOP-62
HOP-92 = test system: HOP-92
HT-29 = test system: HT-29
Hs-578T = test system: Hs-578T
IGROV-1 = test system: IGROV-1
K562 = test system: K562
KM12 = test system: KM12
LOX IMVI = test system: LOX IMVI
M14 = test system: M14
MCF7 = test system: MCF7
MDA-MB-231 = test system: MDA-MB-231
MDA-MB-435 = test system: MDA-MB-435
MDA-N = test system: MDA-N
MOLT-4 = test system: MOLT-4
Malme-3M = test system: Malme-3M
NCI-H226 = test system: NCI-H226
NCI-H23 = test system: NCI-H23
NCI-H460 = test system: NCI-H460
NCI-H522 = test system: NCI-H522
NCI/ADR-RES = test system: NCI/ADR-RES
OVCAR-3 = test system: OVCAR-3
OVCAR-4 = test system: OVCAR-4
OVCAR-5 = test system: OVCAR-5
OVCAR-8 = test system: OVCAR-8
PC-3 = test system: PC-3
RPMI-8226 = test system: RPMI-8226
SF-268 = test system: SF-268
SF-295 = test system: SF-295
SF-539 = test system: SF-539
SK-MEL-28 = test system: SK-MEL-28
SK-MEL-2 = test system: SK-MEL-2
SK-MEL-5 = test system: SK-MEL-5
SK-OV-3 = test system: SK-OV-3
SN12C = test system: SN12C
SNB-19 = test system: SNB-19
SNB-75 = test system: SNB-75
SR = test system: SR
SW-620 = test system: SW-620
T47D = test system: T47D
TK-10 = test system: TK-10
U-251 = test system: U-251
UACC-257 = test system: UACC-257
UACC-62 = test system: UACC-62
UO-31 = test system: UO-31

Measured: GI50

O=c1[nH]nc(Cc2ccc(Cl)cc2)n1/N=C/c1c[nH]c2ccccc12
inactive: 786-0 > 100 µM | A498 > 100 µM | A549 > 100 µM | ACHN > 100 µM | CAKI-1 > 100 µM | CCRF-CEM > 100 µM | DU-145 > 100 µM | EKVX > 100 µM | HCC 2998 > 100 µM | HCT-116 > 100 µM | HL-60 > 100 µM | HOP-62 > 100 µM | HOP-92 > 100 µM | HT-29 > 100 µM | Hs-578T > 100 µM | IGROV-1 > 100 µM | K562 > 100 µM | KM12 > 100 µM | LOX IMVI > 100 µM | M14 > 100 µM | MCF7 > 100 µM | MDA-MB-231 > 100 µM | MDA-MB-435 > 100 µM | MDA-N > 100 µM | MOLT-4 > 100 µM | Malme-3M > 100 µM | NCI-H226 > 100 µM | NCI-H23 > 100 µM | NCI-H460 > 100 µM | NCI-H522 > 100 µM | NCI/ADR-RES 82.8 µM | OVCAR-3 > 100 µM | OVCAR-4 > 100 µM | OVCAR-5 > 100 µM | OVCAR-8 > 100 µM | PC-3 > 100 µM | RPMI-8226 26.3 µM | SF-268 > 100 µM | SF-295 > 100 µM | SF-539 > 100 µM | SK-MEL-28 > 100 µM | SK-MEL-2 > 100 µM | SK-MEL-5 > 100 µM | SK-OV-3 > 100 µM | SN12C > 100 µM | SNB-19 > 100 µM | SNB-75 > 100 µM | SR > 100 µM | SW-620 > 100 µM | T47D > 100 µM | TK-10 > 100 µM | U-251 > 100 µM | UACC-257 > 100 µM | UACC-62 > 100 µM | UO-31 > 100 µM
> 100 µM: HCT-15
